Patent US9988400B2 (Genentech, Inc., priority 2013, dated 2018)

Target: T1, HEK cells stably transfected with tetracycline inducible hNR1 and hNR2A (Homo sapiens, UniProt Q05586+Q12879)
T1 construct: expressed in transfected cells; host or cells: HEK cells, stably transfected, tetracycline/doxycycline inducible
Assay: Assay 1: Cell-Based Assay, cytosolic calcium response to positive allosteric modulators (with 30 μM glycine and 300 nM L-glutamate, EC30)
Settings: for EC50: cytosolic calcium response, with 30 μM glycine and 300 nM L-glutamate (EC30), — = no plateau was reached; for Max %: responses scaled relative to 100 μM L-glutamate maximal response (100%) and 0 μM L-glutamate (0%)
Method in brief: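 Cells induced 24 h with 7.5 μg mL^−1 doxycycline plus 500 μM (+)-ketamine, loaded 60 min at 37 °C with calcium dye in Mg-free HBSS (1.8 mM Ca, probenecid, 10 μM (+)-ketamine, pH 7.15). Peak RFU over 5 min after compound addition, scaled to 100 μM L-glutamate (100%) and 0 μM (0%); four-parameter Hill fit for EC50, max % if no plateau.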

T1 sequence (Q12879 23-1464, other chains not shown): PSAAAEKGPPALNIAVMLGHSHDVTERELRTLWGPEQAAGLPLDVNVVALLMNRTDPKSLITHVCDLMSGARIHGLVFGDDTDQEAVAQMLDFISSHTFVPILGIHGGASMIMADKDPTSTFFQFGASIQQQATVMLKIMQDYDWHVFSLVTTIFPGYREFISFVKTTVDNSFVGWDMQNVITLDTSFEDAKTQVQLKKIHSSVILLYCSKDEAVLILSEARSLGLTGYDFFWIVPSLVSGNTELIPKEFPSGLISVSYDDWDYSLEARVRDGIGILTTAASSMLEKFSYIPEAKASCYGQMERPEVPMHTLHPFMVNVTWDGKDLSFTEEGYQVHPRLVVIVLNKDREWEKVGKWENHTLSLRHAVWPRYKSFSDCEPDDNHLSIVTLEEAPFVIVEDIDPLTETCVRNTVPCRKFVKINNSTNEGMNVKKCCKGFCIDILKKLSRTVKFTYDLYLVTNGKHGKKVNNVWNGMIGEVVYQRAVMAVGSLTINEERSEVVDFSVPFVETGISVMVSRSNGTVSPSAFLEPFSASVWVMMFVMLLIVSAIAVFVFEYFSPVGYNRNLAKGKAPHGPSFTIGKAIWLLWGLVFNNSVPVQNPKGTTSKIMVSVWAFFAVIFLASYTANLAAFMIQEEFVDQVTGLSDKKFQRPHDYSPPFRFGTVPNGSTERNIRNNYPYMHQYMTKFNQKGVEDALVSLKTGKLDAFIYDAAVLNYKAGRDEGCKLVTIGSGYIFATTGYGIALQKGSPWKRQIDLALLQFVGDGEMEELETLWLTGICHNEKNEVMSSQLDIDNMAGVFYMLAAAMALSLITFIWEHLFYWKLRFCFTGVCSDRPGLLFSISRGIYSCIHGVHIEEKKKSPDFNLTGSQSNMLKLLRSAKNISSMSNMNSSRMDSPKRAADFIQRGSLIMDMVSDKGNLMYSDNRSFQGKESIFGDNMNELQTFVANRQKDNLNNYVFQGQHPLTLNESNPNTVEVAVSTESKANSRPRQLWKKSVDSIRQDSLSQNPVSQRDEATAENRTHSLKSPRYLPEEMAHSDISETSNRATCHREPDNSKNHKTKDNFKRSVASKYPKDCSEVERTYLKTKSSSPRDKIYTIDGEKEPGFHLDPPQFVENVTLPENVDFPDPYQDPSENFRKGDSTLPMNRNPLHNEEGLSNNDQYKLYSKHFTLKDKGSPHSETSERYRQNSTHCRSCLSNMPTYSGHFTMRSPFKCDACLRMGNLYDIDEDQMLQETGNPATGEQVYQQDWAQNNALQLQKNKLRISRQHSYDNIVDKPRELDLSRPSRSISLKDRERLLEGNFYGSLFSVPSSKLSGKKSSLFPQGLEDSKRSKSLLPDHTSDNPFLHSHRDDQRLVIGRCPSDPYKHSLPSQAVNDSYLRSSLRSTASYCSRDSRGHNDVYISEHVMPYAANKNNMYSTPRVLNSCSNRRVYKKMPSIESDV

## O=c1cc(Cn2nc(C(F)(F)F)cc2Cl)nc2sc(C(F)(F)F)c(-c3cscn3)n12 [compound 248, 7-[[5-chloro-3-(trifluoromethyl)pyrazol-1-yl]methyl]-3-thiazol-4-yl-2-(trifluoromethyl)thiazolo[3,2-a]pyrimidin-5-one]
Table 3
  EC50: 1.45 µM

## CNC(=O)c1c(C(F)(F)F)sc2nc(Cc3cccc(C(F)(F)F)c3F)cc(=O)n12 [compound 63, 7-[[2-fluoro-3-(trifluoromethyl)phenyl]methyl]-N-methyl-5-oxo-2-(trifluoromethyl)thiazolo[3,2-a]pyrimidine-3-carboxamide]
Table 3
  EC50: 3.71 µM

## COc1cc(C(F)(F)F)n(Cc2cc(=O)n3c(C4CC4C#N)c(C)sc3n2)n1 (stereo not shown) [compound 210, 2-[7-[[3-methoxy-5-(trifluoromethyl)pyrazol-1-yl]methyl]-2-methyl-5-oxo-thiazolo[3,2-a]pyrimidin-3-yl]cyclopropanecarbonitrile]
Table 3
  EC50: 8.92 µM

## CC1(C)CCc2sc3nc(Cn4nc(C(F)(F)F)cc4C4CC4)cc(=O)n3c21 [Example 27.7, 10-{[5-cyclopropyl-3-(trifluoromethyl)-1H-pyrazol-1-yl]methyl}-3,3-dimethyl-7-thia-1,9-diazatricyclo[6.4.0.0^{2,6}]dodeca-2(6),8,10-trien-12-one]
Table 2
  EC50: 26.5 µM

## CNC(=O)c1c(C)sc2nc(Cc3cccc(C(F)(F)F)c3F)c(F)c(=O)n12 [Example 21.29, 6-fluoro-7-(2-fluoro-3-(trifluoromethyl)benzyl)-N,2-dimethyl-5-oxo-5H-thiazolo[3,2-a]pyrimidine-3-carboxamide]
Table 2
  EC50: 4.7 µM
  Max %: 98.2%

## Cc1sc2nc(Cn3nc(C(F)(F)F)cc3Cl)cc(=O)n2c1C(C)O (stereo not shown) [compound 110, 7-[[5-chloro-3-(trifluoromethyl)pyrazol-1-yl]methyl]-3-(1-hydroxyethyl)-2-methyl-thiazolo[3,2-a]pyrimidin-5-one]
Table 3
  EC50: 1.88 µM

## CNC(=O)c1c(C)sc2nc(Cc3ccc(F)c(Cl)c3)cc(=O)n12 [Example 21.47, 7-[(3-chloro-4-fluoro-phenyl)methyl]-N,2-dimethyl-5-oxo-thiazolo[3,2-a]pyrimidine-3-carboxamide]
Table 2
  Max %: 103%

## C#Cc1cc(F)c(F)cc1Cc1cc(=O)n2c(C(=O)NC)c(C)sc2n1 [compound 37, 7-[(2-ethynyl-4,5-difluoro-phenyl)methyl]-N,2-dimethyl-5-oxo-thiazolo[3,2-a]pyrimidine-3-carboxamide]
Table 3
  EC50: 9.02 µM

## CCN(Cc1cc(=O)n2c(/C=C\C#N)c(C)sc2n1)c1ccc(F)cc1 [compound 260, (Z)-3-[7-[(N-ethyl-4-fluoro-anilino)methyl]-2-methyl-5-oxo-thiazolo[3,2-a]pyrimidin-3-yl]prop-2-enenitrile]
Table 3
  EC50: 2.45 µM

## CCN(Cc1cc(=O)n2c(COC)c(C)sc2n1)c1cccc(C#N)c1 [Example 10.24, 3-[ethyl-[[3-(methoxymethyl)-2-methyl-5-oxo-thiazolo[3,2-a]pyrimidin-7-yl]methyl]amino]benzonitrile]
Table 2
  EC50: 8.9 µM
  Max %: 160%

## CNC(=O)c1c(C)sc2nc(COc3ccc(F)c(F)c3)cc(=O)n12 [Example 1.6, 7-(3,4-Difluorophenoxymethyl)-N,2-dimethyl-5-oxo-5H-[1,3]thiazolo[3,2-a] pyrimidine-3-carboxamide]
Table 2
  EC50: 31.6 µM
  Max %: 64%

## CCN(Cc1cc(=O)n2c(-c3ccncc3)c(C)sc2n1)c1ccc(F)cc1 [Example 5.32, 7-[(N-ethyl-4-fluoro-anilino)methyl]-2-methyl-3-(4-pyridyl)thiazolo[3,2-a]pyrimidin-5-one]
Table 2
  EC50: 4.3 µM
  Max %: 123%

## CCN(Cc1cc(=O)n2c(C(C)(C)O)c(C)sc2n1)c1ccc(F)cc1 [Example 10.5, 7-[(N-ethyl-4-fluoro-anilino)methyl]-3-(1-hydroxy-1-methyl-ethyl)-2-methyl-thiazolo[3,2-a]pyrimidin-5-one]
Table 2
  EC50: 0.495 µM
  Max %: 158%

## CCNC(=O)c1c(C)sc2nc(Cc3cccc(C(F)(F)F)n3)cc(=O)n12 [Example 21.18, N-ethyl-2-methyl-5-oxo-7-((6-(trifluoromethyl)pyridine-2-yl)methyl)-5H-thiazolo[3,2-a]pyrimidine-3-carboxamide]
Table 2
  Max %: 58.5%

## Cc1sc2nc(Cn3nc(Cl)cc3C(F)(F)F)cc(=O)n2c1-c1ccn[nH]1 [compound 133, 7-[[3-chloro-5-(trifluoromethyl)pyrazol-1-yl]methyl]-2-methyl-3-(1H-pyrazol-5-yl)thiazolo[3,2-a]pyrimidin-5-one]
Table 3
  EC50: 10.1 µM

## Cc1sc2nc(Cn3nc(C(F)(F)F)cc3C3CC3)cc(=O)n2c1C#N [Example 17.2, 7-((5-cyclopropyl-3-(trifluoromethyl)-1H-pyrazol-1-yl)methyl)-2-methyl-5-oxo-5H-thiazolo[3,2-a]pyrimidine-3-carbonitrile]
Table 2
  EC50: 2 µM
  Max %: 119%

## CCNC(=O)c1c(C)sc2nc(Cn3nc(Cl)cc3C3CC3)cc(=O)n12 [compound 22, 7-[(3-chloro-5-cyclopropyl-pyrazol-1-yl)methyl]-N-ethyl-2-methyl-5-oxo-thiazolo[3,2-a]pyrimidine-3-carboxamide]
Table 3
  EC50: 4.13 µM

## Cc1sc2nc(Oc3cccc(C#N)c3F)cc(=O)n2c1C1CC1C (stereo not shown) [compound 107, 2-fluoro-3-[2-methyl-3-(2-methylcyclopropyl)-5-oxo-thiazolo[3,2-a]pyrimidin-7-yl]oxy-benzonitrile]
Table 3
  EC50: 0.994 µM

## CCN(Cc1cc(=O)n2c([C@@H]3C[C@H]3CO)c(C)sc2n1)c1ccc(F)cc1 (relative stereo) [Example 5.17, 7-((ethyl(4-fluorophenyl)amino)methyl)-3-(trans-2-(hydroxymethyl)cyclopropyl)-2-methyl-5H-thiazolo[3,2-a] pyrimidin-5-one]
Table 2
  EC50: 0.108 µM
  Max %: 176%

## CCNC(=O)c1csc2nc(Cn3nc(C(F)(F)F)cc3C3CC3)cc(=O)n12 [Example 16.5, 7-((5-cyclopropyl-3-(trifluoromethyl)-1H-pyrazol-1-yl)methyl)-N-ethyl-5-oxo-5H-thiazolo[3,2-a]pyrimidine-3-carboxamide]
Table 2
  EC50: 10.6 µM
  Max %: 149%

## Cc1sc2nc(Cc3cc(C(F)(F)F)ccc3Cl)cc(=O)n2c1C1CC1C#N (stereo not shown) [compound 187, 2-[7-[[2-chloro-5-(trifluoromethyl)phenyl]methyl]-2-methyl-5-oxo-thiazolo[3,2-a]pyrimidin-3-yl]cyclopropanecarbonitrile]
Table 3
  EC50: 11.1 µM

## Cc1sc2nc(Cn3nncc3C3CC3)cc(=O)n2c1C1CC1CO (stereo not shown) [compound 153, 7-[(5-Cyclopropyltriazol-1-yl)methyl]-3-[2-(hydroxymethyl)cyclopropyl]-2-methyl-thiazolo[3,2-a]pyrimidin-5-one]
Table 3
  EC50: 73.5 µM

## Cc1cc(C2CC2)n(Cc2cc(=O)n3c([C@@H]4C[C@H]4CO)c(C)sc3n2)n1 (single isomer, unassigned) [Example 15.13, 7-[(5-cyclopropyl-3-methyl-pyrazol-1-yl)methyl]-3-[2-(hydroxymethyl)cyclopropyl]-2-methyl-thiazolo[3,2-a]pyrimidin-5-one]
Table 2
  Max %: 67.6%

## CC1(C)CCc2sc3nc(Cn4nc(C5CC5)cc4C(F)(F)F)cc(=O)n3c21 [Example 27.8, 10-{[3-cyclopropyl-5-(trifluoromethyl)-1H-pyrazol-1-yl]methyl}-3,3-dimethyl-7-thia-1,9-diazatricyclo[6.4.0.0^{2,6}]dodeca-2(6),8,10-trien-12-one]
Table 2
  EC50: 30.4 µM

## Cc1sc2nc(Cn3nc(Cl)cc3C(F)(F)F)cc(=O)n2c1-c1ncco1 [compound 159, 7-[[3-chloro-5-(trifluoromethyl)pyrazol-1-yl]methyl]-2-methyl-3-oxazol-2-yl-thiazolo[3,2-a]pyrimidin-5-one]
Table 3
  EC50: 7.59 µM

## Cc1sc2nc(Cc3cccc(C(F)(F)F)c3F)cc(=O)n2c1C(=O)NCC#N [Example 25.2, N-(cyanomethyl)-7-(2-fluoro-3-(trifluoromethyl)benzyl)-2-methyl-5-oxo-5H-thiazolo[3,2-a]pyrimidine-3-carboxamide]
Table 2
  EC50: 15.2 µM

## CCN(Cc1cc(=O)n2c(C3CC3(C#N)CO)csc2n1)c1ccc(F)cc1 (stereo not shown) [compound 220, 2-[7-[(N-Ethyl-4-fluoro-anilino)methyl]-5-oxo-thiazolo[3,2-a]pyrimidin-3-yl]-1-(hydroxymethyl)cyclopropanecarbonitrile]
Table 3
  EC50: 47 µM

## CCN(Cc1cc(=O)n2c(-c3ccnnc3)c(C)sc2n1)c1ccc(F)cc1 [Example 5.30, 7-[(N-ethyl-4-fluoro-anilino)methyl]-2-methyl-3-pyridazin-4-yl-thiazolo[3,2-a]pyrimidin-5-one]
Table 2
  EC50: 4.3 µM
  Max %: 132%

## CCN(Cc1cc(=O)n2c3c(sc2n1)CCC3)c1ccc(F)cc1 [Example 8.1, 6-[(N-ethyl-4-fluoro-anilino)methyl]-2,3-dihydro-1H-cyclopenta[3,4]thiazolo[1,4-a]pyrimidin-8-one]
Table 2
  EC50: 5.2 µM
  Max %: 146%

## CNC(=O)Cc1c(C)sc2nc(COc3ccc(F)cc3)cc(=O)n12 [Example 2.6, 2-(7-((4-fluorophenoxy)methyl)-2-methyl-5-oxo-5H-thiazolo[3,2-a]pyrimidin-3-yl)-N-methylacetamide]
Table 2
  EC50: 19.6 µM
  Max %: 59.9%

## Cc1sc2nc(C(C)n3nc(C(F)(F)F)cc3C3CC3)cc(=O)n2c1C1(C)CC1CO (stereo not shown) [Example 19.2, 7-(1-(5-cyclopropyl-3-(trifluoromethyl)-1H-pyrazol-1-yl)ethyl)-3-(2-(hydroxymethyl)-1-methylcyclopropyl)-2-methyl-5H-thiazolo[3,2-a]pyrimidin-5-one]
Table 2
  Max %: 64.2%

## O=c1cc(Cn2nc(C(F)(F)F)cc2Cl)nc2scc(Cl)n12 [compound 235, 3-chloro-7-[[5-chloro-3-(trifluoromethyl)pyrazol-1-yl]methyl]thiazolo[3,2-a]pyrimidin-5-one]
Table 3
  EC50: 21.2 µM
